{"source": "patent US20190376971A1", "about": "“Compositions and Methods for the Assessment of Drug Target Occupancy for Bruton's Tyrosine Kinase” (Acerta Pharma B.V., priority 2017, published 2019)", "target": "T1, BTK (Canis lupus familiaris, UniProt A0A8I3P3Z9)", "T1 construct": "PBMCs are isolated from the blood of dogs by Ficoll Paque procedure; from tissue; host or cells: CD21+ B cells purified from PBMCs of dog blood (dogs with spontaneous lymphoma, dosed orally)", "T1 sequence (A0A8I3P3Z9 1-664)": "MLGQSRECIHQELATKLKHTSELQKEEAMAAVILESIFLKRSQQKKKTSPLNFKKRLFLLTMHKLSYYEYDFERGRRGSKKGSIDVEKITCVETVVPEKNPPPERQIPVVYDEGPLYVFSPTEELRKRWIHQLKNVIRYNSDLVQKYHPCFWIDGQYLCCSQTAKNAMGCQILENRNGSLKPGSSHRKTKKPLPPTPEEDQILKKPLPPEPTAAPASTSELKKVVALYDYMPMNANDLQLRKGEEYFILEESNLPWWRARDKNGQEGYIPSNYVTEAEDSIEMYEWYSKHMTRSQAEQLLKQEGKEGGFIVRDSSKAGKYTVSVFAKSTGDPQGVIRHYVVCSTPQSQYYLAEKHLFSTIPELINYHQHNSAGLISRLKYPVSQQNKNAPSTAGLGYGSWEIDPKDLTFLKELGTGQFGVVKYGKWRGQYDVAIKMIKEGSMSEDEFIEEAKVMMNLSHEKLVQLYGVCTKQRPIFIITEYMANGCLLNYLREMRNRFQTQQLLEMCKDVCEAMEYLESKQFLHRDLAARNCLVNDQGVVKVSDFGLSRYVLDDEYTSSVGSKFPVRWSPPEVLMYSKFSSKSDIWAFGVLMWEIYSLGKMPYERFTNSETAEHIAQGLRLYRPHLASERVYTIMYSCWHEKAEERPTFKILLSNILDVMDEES", "experiment": "BTK target occupancy in canine peripheral CD21+ B cells after oral dosing", "assay_type": "in vivo, dog", "details": "day 7 prior to repeat dose, 1 day after preceding dose; 2.5 mg/kg once daily, peroral", "method": "The following method may be used for the ELISA BTK target occupancy assay. Other variations of this assay are known to those of skill in the art and may also be used. • 1. Coat a 96-well plate (Optiplate, Perkin Elmer, catalog no. 6005290) with 125 ng/well anti-BTK (BD Biosciences catalog no. 611117) in 100 μL PBS, overnight at 4° C. • 2. Wash 2×200 μL/well PBS-Tween 0.05% (PBST). • 3. Block with 245 μL/well PBST+3% bovine serum albumin (BSA), for 2 to 3 hours at room temperature while shaking. • 4. During blocking, incubate samples with acalabrutinib and probe in Eppendorf tubes: • a. Centrifuge cells 5 minutes at 5000 rpm and 4° C. in Eppendorf centrifuge. • b. Remove supernatant, dilute BTK protein or resuspend cell pellet in cold (2-8° C.) lysis buffer (see below). For amount of cells/μL, see detailed protocols for Ramos (Example 6.2), canine B cells (Example 7.2) and human PBMCs (Example 8.2). • c. Incubate on ice for 30 minutes while shaking. Vortex every 10 minutes. • d. Centrifuge for 10 minutes at 14000 rpm and 4° C. in Eppendorf centrifuge. • e. Transfer supernatant to new tube. • f. […] Wash wells 2×245 μL/well PBST. • 6. Add (in duplicate) 100 μL of each sample (with and without Formula (3)) to the wells. • 7. Incubate for 2 hours at room temperature while shaking. • 8. Wash 4×PBST, 200 μL/well. • 9. […]"}
{"compound": "CC#CC(=O)N1CCC[C@H]1c1nc(-c2ccc(C(=O)Nc3ccccn3)cc2)c2c(N)nccn12", "note": "[acalabrutinib]", "values": [{"measurement": "BTK still occupied, percentage of the predose sample", "value": 83, "unit": "%"}]}
